US7709488B2, “Imidazopyridine-derivatives as inducible no-synthase inhibitors” (Altana Pharma AG, priority 2003, dated 2010)

How the values were obtained:
[1] = biological target: human inducible NO-synthase (Homo sapiens, UniProt P35228); assay: Measurement of inducible NO-synthase activity ([3H]arginine conversion, crude cytosolic fraction); assay type: biochemical; details: 0.1 μM arginine, 45 to 60 min at 37° C., pH 7.2; for IC50: read-out: Inhibition of iNOS activity [measured as −logIC50 (mol/l)] (converted)
Description: Measurement of Inducible NO-Synthase Activity
The assay is performed in 96-well microtiter F-plates (Greiner, Frickenhausen, FRG) in a total volume of 100 μl in the presence of 100 nM calmodulin, 226 μM CaCl2, 477 μM MgCl2, 5 μM flavin-adenine-dinucleotide (FAD), 5 μM flavin mononucleotide (FMN), 0.1 mM NADPH, 7 mM glutathione, 10 μM BH4 and 100 mM HEPES pH 7.2. Arginine concentrations are 0.1 μM for enzyme inhibition experiments. 150000 dpm of [^3H]arginine are added to the assay mixture. Enzyme reaction is started by the addition of 4 μg of a crude cytosolic fraction containing human inducible NO-synthase and the reaction mixture is incubated for 45 to 60 min at 37° C. Enzyme reaction is stopped by adding 10 μl of 2M MES-buffer pH 5.0. 50 μl of the incubation mixture are transferred into a MADP N65 filtration microtiter plate (Millipore, Eschbom, FRG) containing already 50 μl of AG-50W-X8 cation exchange resin (Biorad, München, FRG). The resin in the Na loaded form is pre-equilibrated in water and 70 μl (corresponding to 50 μl dry beads) are pipetted under heavy stirring with a 8 channel pipette into the filtration plate. After pipetting 50 μl of the enzyme reaction mixture onto the filtration plates, the plates are placed on a filtration manifold (Porvair, Shepperton, UK) and the flow through is collected in Pico scintillation plates (Packard, Meriden, Conn.). The resin in the filtration plates is washed with 75 μl of water (1×50 μl and 1×25 μl) which is also collected in the same plate as the sample. The total flow through of 125 μl is mixed with 175 μl of Microscint-40 scintillation cocktail (Packard) and the scintillation plate is sealed with TopSeal P-foil (Packard). Scintillation plates are counted in a scintillation counter.
For the measurement of inducible NO-synthase-inhibiting potencies of compounds increasing concentrations of inhibitors were included into the incubation mixture. IC50-values were calculated from the percent inhibition at given concentrations by nonlinear least square fitting.
The inhibitory values determined for the compounds according to the invention follow from the following table A, in which the compound numbers correspond to the example numbers.

Row | IC50 [1] [nM] | melting point [°C] | SMILES | Inhibition of iNOS activity [measured as −logIC50] [1]
1 | 19.5 | 193 to 195 | COc1ccnc(CCc2nc3cc(-c4ccc(S(=O)(=O)N5CCN(C)CC5)cc4)cnc3[nH]2)c1 [Compound 1] | –
2 | 35.5 | 160 to 162 | COc1ccnc(CCc2nc3cc(-c4ccc(S(=O)(=O)N5CCN(Cc6ccccc6)CC5)cc4)cnc3[nH]2)c1 [Compound 2, 2-[2-(4-Methoxypyridin-2-yl)-ethyl]-6-[4-(4-benzylpiperazin-1-yl-sulfonyl)-phenyl]-3H-imidazo-[4,5-b]pyridine] | –
3 | 14.5 | 218 to 220 | COc1ccnc(CCc2nc3cc(-c4ccc(S(=O)(=O)N5CCN(c6ccccc6)CC5)cc4)cnc3[nH]2)c1 [Compound 3, 2-[2-(4-Methoxypyridin-2-yl)ethyl]-6-[4-(4-phenylpiperazin-1-yl-sulfonyl)-phenyl]-3H-imidazo-[4,5-b]pyridine] | –
4 | 30.2 | 217 to 219 | COc1ccnc(CCc2nc3cc(-c4ccc(S(=O)(=O)N5CCN(c6ccc(C#N)cc6)CC5)cc4)cnc3[nH]2)c1 [Compound 4, 2-[2-(4-Methoxypyridin-2-yl)ethyl]-6-{4-[4-(4-cyanophenyl)-piperazin-1-yl-sulfonyl]-phenyl}-3H-imidazo-[4,5-b]pyridine] | –
5 | 26.3 | 150 to 154 | COc1ccnc(CCc2nc3cc(-c4ccc(S(=O)(=O)N5CCN(c6ccc(C)cc6)CC5)cc4)cnc3[nH]2)c1 [Compound 5, 2-[2-(4-Methoxypyridin-2-yl)ethyl]-6-[4-(4-p-tolyl-piperazin-1-yl-sulfonyl)-phenyl]-3H-imidazo-[4,5-b]pyridine] | –
6 | 126 | 208 to 209 | COc1ccnc(CCc2nc3cc(-c4ccc(S(=O)(=O)N5CCN(c6ccc(C)cc6C)CC5)cc4)cnc3[nH]2)c1 [Compound 6, 6-{4-[4-(2,4-Dimethylphenyl)-piperazin-1-yl-sulfonyl]-phenyl}-2-[2-(4-methoxy-pyridin-2-yl)ethyl]-3H-imidazo[4,5-b]pyridine] | –
7 | 42.7 | 206 to 208 | COCCN1CCN(S(=O)(=O)c2ccc(-c3cnc4[nH]c(CCc5cc(OC)ccn5)nc4c3)cc2)CC1 [Compound 8, 6-{4-[4-(2-Methoxy-ethyl)-piperazin-1-yl-sulfonyl]-phenyl}-2-[2-(4-methoxy-pyridin-2-yl)ethyl]-3H-imidazo[4,5-b]pyridine] | –
8 | 29.5 | 138 to 140 | COc1ccnc(CCc2nc3cc(-c4ccc(S(=O)(=O)N5CCN(C(C)=O)CC5)cc4)cnc3[nH]2)c1 [Compound 9, 6-[4-(4-Acetyl-piperazin-1-yl-sulfonyl)-phenyl]-2-[2-(4-methoxy-pyridin-2-yl)ethyl]-3H-imidazo[4,5-b]pyridine] | –
9 | 22.9 | 210 to 212 | COc1ccnc(CCc2nc3cc(-c4ccc(S(=O)(=O)N5CCOCC5)cc4)cnc3[nH]2)c1 [Compound 10, 2-[2-(4-Methoxypyridin-2-yl)ethyl]-6-[4-(morpholin-4-yl-sulfonyl)-phenyl]-3H-imidazo-[4,5-b]pyridine] | –
10 | 12.9 | 160 to 162 | COc1ccnc(CCc2nc3cc(-c4ccc(S(=O)(=O)N5CCCN(C)CC5)cc4)cnc3[nH]2)c1 [Compound 11, 2-[2-(4-Methoxypyridin-2-yl)ethyl]-6-[4-(4-methyl-[1,4]diazepan-1-yl-sulfonyl)-phenyl]-3H-imidazo-[4,5-b]pyridine] | –
11 | 25.1 | 186 to 188 | COc1ccnc(CCc2nc3cc(-c4ccc(S(=O)(=O)N5CCC(C)CC5)cc4)cnc3[nH]2)c1 [Compound 12, 2-[2(4-Methoxypyridin-2-yl)ethyl]-6-[4-(4-methyl-piperidin-1-yl-sulfonyl)-phenyl]-3H-imidazo-[4,5-b]pyridine] | –
12 | 33.1 | 174 to 175 | COc1ccnc(CCc2nc3cc(-c4ccc(S(=O)(=O)N5CCC(C(=O)c6ccccc6)CC5)cc4)cnc3[nH]2)c1 [Compound 13, 6-[4-(4-Benzoyl-piperidin-1-yl-sulfonyl)-phenyl]-2-[2-(4-methoxy-pyridin-2-yl)ethyl]-3H-imidazo[4,5-b]pyridine] | –
13 | 24 | 230 to 232 | COc1ccnc(CCc2nc3cc(-c4ccc(S(=O)(=O)N5CCNC(=O)CC5)cc4)cnc3[nH]2)c1 [Compound 16, 6-[4-(1,4-Diazepan-5-one-1-yl-sulfonyl)-phenyl]-2-[2-(4-methoxy-pyridin-2-yl)ethyl]-3H-imidazo[4,5-b]pyridine] | –
14 | 18.6 | 211 to 212 | COc1ccnc(CCc2nc3cc(-c4ccc(S(=O)(=O)NCc5ccccc5)cc4)cnc3[nH]2)c1 [Compound 19, N-Benzyl-4-{2-[2-(4-methoxypyridin-2-yl)ethyl]-3H-imidazo-[4,5-b]pyridin-6-yl}benzenesulfonamid] | –

The remaining lines, values behind:

Row | SMILES | IC50 [1] [nM] | melting point [°C] | Inhibition of iNOS activity [measured as −logIC50] [1]
15 | COc1ccnc(CCc2nc3cc(-c4ccc(S(=O)(=O)N5CCN(c6cc(Cl)cc(Cl)c6)CC5)cc4)cnc3[nH]2)c1 [Compound 7, 6-{4-[4-(3,5-Dichlorphenyl)-piperazin-1-yl-sulfonyl]-phenyl}-2-[2-(4-methoxy-pyridin-2-yl)ethyl]-3H-imidazo[4,5-b]pyridine] | – | – | 6.51
16 | COc1ccnc(CCc2nc3cc(-c4ccc(S(=O)(=O)N5CCC6(CC5)OCCO6)cc4)cnc3[nH]2)c1 [Compound 14, 6-[4-(1,4-dioxa-8-azaspiro[4.5]decan-8-yl-sulfonyl)-phenyl]-2-[2-(4-methoxy-pyridin-2-yl)ethyl]-3H-imidazo[4,5-b]pyridine] | 26.3 | 121 to 122 | –
17 | COc1ccnc(CCc2nc3cc(-c4ccc(S(=O)(=O)N5CCc6cc(OC)c(OC)cc6C5)cc4)cnc3[nH]2)c1 [Compound 15, 6-[4-(6,7-Dimethoxy-1,2,3,4-tetrahydroisoquinolin-2-yl-sulfonyl)-phenyl]-2-[2-(4-methoxy-pyridin-2-yl)ethyl]-3H-imidazo[4,5-b]pyridine] | 34.7 | 207 to 208 | –
18 | COc1ccnc(CCc2nc3cc(-c4ccc(S(=O)(=O)NCCO)cc4)cnc3[nH]2)c1 [Compound 17, N-(2-Hydroxyethyl)-4-{2-[2-(4-methoxypyridin-2-yl)ethyl]-3H-imidazo[4,5-b]pyridin-6-yl}benzenesulfonamid] | 42.7 | 218 to 220 | –
19 | COc1ccnc(CCc2nc3cc(-c4ccc(S(=O)(=O)N(CCO)CCO)cc4)cnc3[nH]2)c1 [Compound 18, N,N-Bis-(2-hydroxyethyl)-4-{2-[2-(4-methoxypyridin-2-yl)ethyl]-3H-imidazo-[4,5-b]pyridin-6-yl}benzenesulfonamid] | 91.2 | 127 to 128 | –
20 | COc1ccnc(CCc2nc3cc(-c4ccc(S(=O)(=O)NC5CCCCC5)cc4)cnc3[nH]2)c1 [Compound 20, N-Cyclohexyl-4-{2-[2-(4-methoxypyridin-2-yl)ethyl]-3H-imidazo-[4,5-b]pyridin-6-yl}benzenesulfonamid] | 50.1 | 199 to 200 | –
21 | COc1ccnc(CCc2nc3cc(-c4ccc(S(=O)(=O)N(C)C)c(OC(F)(F)F)c4)cnc3[nH]2)c1 [Compound 21, 4-{2-[2-(4-Methoxypyridin-2-yl)ethyl]-3H-imidazo[4,5-b]pyridin-6-yl}-N,N-dimethyl-2-trifluormethoxy-benzenesulfonamide] | – | – | 6.95
22 | COc1ccnc(CCc2nc3cc(-c4ccc(S(=O)(=O)N(C)C)c(C(F)(F)F)c4)cnc3[nH]2)c1 [Compound 22, 4-{2-[2-(4-Methoxypyridin-2-yl)ethyl]-3H-imidazo[4,5-b]pyridin-6-yl}-N,N-dimethyl-2-trifluormethyl-benzenesulfonamide] | – | – | 7
23 | COc1ccnc(CCc2nc3cc(-c4ccc(S(=O)(=O)N(C)C)cc4C)cnc3[nH]2)c1 [Compound 23, 4-{2-[2-(4-Methoxypyridin-2-yl)ethyl]-3H-imidazo[4,5-b]pyridin-6-yl}-N,N-dimethyl-3-methyl-benzenesulfonamide] | 67.6 | 179 to 180 | –
24 | COc1ccnc(CCc2nc3cc(-c4ccc(S(=O)(=O)N(C)c5ccc(Cl)cc5)cc4)cnc3[nH]2)c1 [Compound 28, N-(4-Chlorphenyl)-N-methyl-4-{2-[2-(4-methoxypyridin-2-yl)ethyl]-3H-imidazo-[4,5-b]pyridin-6-yl}benzenesulfonamid] | – | – | 7.41
